One experiment deals with T1, recombinant human UCK2 (Homo sapiens, UniProt Q9BZX2).
T1 construct: 6xHis (C); made in house; host or cells: E. coli BL21(DE3)
T1 sequence (Q9BZX2 1-261): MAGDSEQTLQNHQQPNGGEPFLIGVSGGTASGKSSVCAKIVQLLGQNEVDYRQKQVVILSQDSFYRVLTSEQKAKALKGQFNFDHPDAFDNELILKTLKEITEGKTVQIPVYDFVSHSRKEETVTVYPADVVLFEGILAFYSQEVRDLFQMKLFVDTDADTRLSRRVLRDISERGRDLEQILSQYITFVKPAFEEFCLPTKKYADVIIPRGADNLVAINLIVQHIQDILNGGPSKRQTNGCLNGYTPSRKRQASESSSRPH
Description: In vitro enzyme activity assay with recombinant human UCK2 (PK/LDH-coupled, UV 340 nm). It counts as biochemical. From the text:
In order to guide our SAR studies, we developed an enzymatic assay to evaluate the inhibitory effect of each CPU analog against recombinant human UCK2, which was expressed and purified in E. coli. A continuous assay system was optimized by coupling UCK2 activity to the pyruvate kinase (PK) reaction, which in turn was coupled to lactate dehydrogenase (LDH). Overall reaction progress was continuously monitored by detecting the UV absorption change at 340 nm, which was correlated with the ATP consumption by UCK2. The effect of 250 μM of each CPU analog on UCK2 activity was evaluated in the presence of 50 μM uridine. […] We then individually measured the steady state kinetic parameters of UCK2 using uridine, CPU and 5-F-CPU as substrates. Their KM values were 86, 25, and 41 μM, and their kcat/KM values were 2.6×10^5, 1.5×10^5, and 7.3×10^4 s^−1 M^−1 (FIG. 5B).
Cloning, expression and purification of recombinant human UCK2 and CMPK1: Uridine cytidine kinase 2 (UCK2) was cloned into the pET-21a(+) vector using Ndel and Notl as restriction sites. […] The resulting plasmid was transformed into E. coli BL21(DE3) cells by electroporation, recovered in SOC at 37° C. for 1 h and plated onto LB agar plates with kanamycin overnight at 37° C. A single, isolated colony was inoculated into 30 mL LB supplemented with 50 μg/mL kanamycin and grown at 37° C. with shaking for 15 h. The next day, these cells were used to inoculate 1 L autoclaved LB with 50 μg/mL kanamycin. The flask was shaken at 37° C. When an optical density (OD600) of 0.7 was reached, protein expression was induced with 0.5 mM isopropyl β-D-1-thiogalactopyranoside (IPTG). The temperature was changed to 18° C. and flasks were shaken for an additional 15 h. The cell pellets were collected by spinning the media at 5000 rpm for 10 min. The pellets obtained were frozen by liquid nitrogen and stored in −80° C. for protein purification. Cell pellets were thawed and resuspended in lysis buffer containing Tris (40 mM, pH 7.5), NaCl (10 mM), imidazole (10 mM), DTT (1 mM). Cells were lysed by sonication and centrifuged at 25,000 g for 1 h. The supernatant was incubated with a slurry of Ni-NTA resin for 1 h at 4° C. and loaded onto a column. The nickel column wash buffer was Tris (40 mM, pH 7.5), NaCl (10 mM), DTT (1 mM) and each wash step contained increasing concentrations of imidazole (10, 50, or 250 mM). After SDS-PAGE confirmation of the protein fractions, protein was further purified using fast protein liquid chromatography (FPLC) using buffer A (50 mM Tris-HCl pH 8, 1 mM dithiothreitol (DTT), 10% glycerol) and elution buffer B (50 mM Tris-HCl pH 8, 1mM dithiothreitol (DTT), 10% glycerol with 500 mM NaCl) with changing gradient over a 20 minute from 2% to 100% Buffer B. FPLC eluents containing the protein was concentrated using Am icon centrifugal filter with 3K cut-off and the enzyme was stored in storage buffer (50 mM Tris-HCl pH 7.5, 10% glycerol). Human cytidine monophosphate kinase 1 (CMPK1) was purified as previously described (Deans et al., 2016).
In vitro enzyme activity assays with recombinant human UCK2: To continuously monitor reaction progress spectrophotometrically, ATP hydrolysis was coupled to NADH oxidation via pyruvate kinase (PK) and lactate dehydrogenase (LDH). Reactions were conducted at room temperature in 100 μL in 96-well plates (Greiner Bio-One, UV-Star, Half Area). Mixtures contained 20 mM HEPES (pH 7.2), 100 mM KCl, 2 mM MgCl2, 300 μM ATP, 0-500 μM uridine, 0-500 μM CPU analogs, 10 nM UCK2, 1 mM phosphoenolpyruvate, 500 μM NADH and 20 units/mL of PK and LDH. Progress was monitored in the linear region using a Biotek Synergy HT and kinetic and inhibition constants were determined using GraphPad Prism 7 (GraphPad Software).

The subject of experiment [1] is intracellular uridine and cytidine nucleotide levels. Nature of the experiment: LC-MS/MS analysis of intracellular nucleotides in A549 cells. Format: cell-based. The following applies: 250 μM with 1 μM GSK983, 5 μM uridine, 6 h. On the procedure: FIG. 7. LC-MS analysis of intracellular nucleotides. (A) LC-MS analysis of intracellular uridine and cytidine nucleotide levels after 6 h treatments. In all assays, the culture medium was supplemented with 5 μM uridine and 1 μM GSK983. Error bars represent ±S.D. of two replicates. (B) LC-MS detection of mono-, di- and tri-phosphates of CPU and 5-F-CPU in cells. LC-MS/MS was performed on an Agilent 1290 infinity II LC system tandem with 6370 triple quad mass spectrometer using ion pairing chromatography. LC separation was performed at 40° C. with a solvent flow rate of 0.25 mL/min on a Zorbax RRHD Extended-C18 column (2.1×150 mm, 1.8 μM). Buffer A contained 97% H2O, 3% MeOH, 5 mM tributylamine, 5.5 mM Acetic acid and 1 μM medronic acid with pH=5.0; Buffer B contains ca. 100% MeOH, 5 mM tributylamine, 5.5 mM Acetic acid and 5 μM medronic acid with pH=7.0 The initial mobile phase composition was 100% solvent A, and a constant or linear gradient was applied after sample injection with eluent B varying as follows: 0% at 2.5 min, 20% at 7.5 min, 45% at 14 min, 99% at 20 to 23 min, and 0% from 23.1 to 27.1 min. […] Samples were measured in the negative ESI mode with capillary voltage at −3.5 kV. […]
With optimized sampling and detection method in hand, pyrimidine nucleotide levels were measured in cells cultured with either 250 μM CPU, 5-F-CPU or 5′-F-CPU in combination with 1 μM GSK983 (FIG. 7A). […]

For experiment [2], the system named is DENV-2 virus. Nature of the experiment: Pilot antiviral assay, DENV-Luc replication in A549 cells (FIG. 2). The following applies: alone, 20 μM exogenous uridine. Format: cell-based, dengue serotype 2 (DENV-2) strain 16681. As to the method:
We therefore focused our efforts on evaluating CPU in combination with GSK983. Using an infectious clone of dengue serotype 2 (DENV-2) strain 16681 engineered to express a luciferase reporter, the efficacy and cytotoxicity of combinations of GSK983 and CPU were assessed in infected or uninfected cultures of the A549 lung carcinoma cell line (FIG. 2). […] However, a combination of 0.2 μM GSK and 250 μM CPU inhibited ca. 50% of virus replication.
(§1) DENV-Luc reporter virus generation: The design of the pDENV-Luc infectious clone derived from dengue serotype 2 (DENV-2) strain 16681 was described in detail by Marceau et al (Marceau et al., 2016). The plasmid was linearized with Xbal and in vitro transcribed into the genomic RNA of DENV-Luc virus using the T7 Megascript Kit (Ambion) in the presence of m7G(5′)ppp(5′)G RNA Cap Structure Analog (NEB). 5 μg DENV-Luc RNA was electroporated into 2×10^6 Vero cells. The transfected cells were resuspended with Dulbecco's modified Eagle's medium (DMEM; Invitrogen) with 10% FBS and 100 U/ml penicillin-streptomycin and transferred into a T-175 flask incubated at 37° C. with 5% CO2. Supernatants were collected and replenished with fresh medium every 24 h from day 17 to 24 post-transfection, pooled together, clarified by centrifugation and stored in aliquots at −80° C. The amount of infectious DENV-Luc virus in the stock was titrated using the TCID50 assay and calculated by the Spearman & Kärber algorithm as described previously (Hierholzer and Killington, 1996).
Pilot Antiviral Assays (for FIG. 2): A549 cells were plated overnight at 20,000 cells/well in 24-well plates in complete DMEM and incubated for 24 h at 37° C. Cell were then treated with pyrimidine de novo synthesis and/or salvage inhibitors in DMEM supplemented with 20 μM uridine. Four hours after drug addition, cells were infected with DENV-2 virus at a MOI=0.01. After 48 h, DENV-Luc replication was monitored by the production of Renilla luciferase, which was measured using the Renilla-Glo Luciferase Assay System (Promega) according to the specifications of the manufacturer. For the accompanying cell viability assay, A549 cells were seeded into 24-well plates at a density of 20,000 cells/well incubated for 24 h at 37° C. Cell were then treated with pyrimidine de novo synthesis and/or salvage inhibitors in DMEM supplemented with 20 μM uridine. Following 48h treatment, cells were harvested, and the density of viable cells was determined by flow cytometry (FSC/SSC) using a BD Accuri C6 Flow Cytometer.

The test system of experiment [3] is DENV-2 virus. Nature of the experiment: DENV antiviral assay, DENV-Luc replication in A549 cells (FIGS. 8 and 9). It counts as cell-based, dengue serotype 2 (DENV-2) strain 16681. Particulars: single agents, 20 μM uridine. As to the method:
as §1
DENV antiviral assays (For FIGS. 8 and 9): A549 cells were plated overnight at 5,000 cells/well in 96-well plates in complete DMEM and incubated for 24 h at 37° C. Cells were then treated with pyrimidine de novo synthesis inhibitors, and/or salvage inhibitors, and/or R1479 in DMEM supplemented with 20 μM uridine. Four hours after drug addition, cells were infected with DENV-2 virus at a MOI=0.1. After 72 h, DENV-Luc replication was monitored by the production of Renilla luciferase, which was measured using the Renilla-Glo Luciferase Assay System (Promega) according to the specifications of the manufacturer. For the accompanying cell viability assay, A549 cells were seeded at 5,000 cells/well in 96-well plates in complete DMEM and incubated for 24 h at 37° C. Cell were then treated with pyrimidine de novo synthesis inhibitors, and/or salvage inhibitors, and/or R1479 in DMEM supplemented with 20 μM uridine. Following 48 h treatment, cell viability was monitored by ATP levels, which was measured using the CellTiter-Glo Luciferase Assay System (Promega) according to the specifications of the manufacturer.

Experiment [4] has as its system a variety of unrelated viruses. The following applies: Harvey et al. (2009); read-out: EC50, replication of a variety of unrelated viruses in vitro; cited from earlier work.

The text below walks through data of patent US20220280513A1, “ENHANCING THE ANTIVIRAL EFFICACY OF RNA VIRUS INHIBITION BY COMBINATION WITH MODULATORS OF PYRIMIDINE METABOLISM” (The Board of Trustees of the Leland Stanford Junior …, priority 2019, published 2022).

Each structure is given as a SMILES string.

Regarding `O=c1ccn([C@@H]2C=C(CF)[C@@H](O)[C@H]2O)c(=O)[nH]1` [5′-F-CPU, 1-((1R,4R,5S)-3-(fluoromethyl)-4,5-dihydroxycyclopent-2-en-1-yl)pyrimidine-2,4(1H,3H)-dione], the “UCK2 substrate or not (ATP consumption)” value at recombinant human UCK2 (250 μM analog in the presence of 50 μM uridine) is recorded as “inhibitors but not substrates”. The Ki at recombinant human UCK2 (competitive inhibitors of UCK2, Lineweaver-Burk analysis) stood at 170 µM. The “depletion of intracellular uridine and cytidine nucleotide levels” value in experiment [1] is “did not deplete”.
In the case of `O=C(N[C@@H]1CCCc2c1[nH]c1ccc(Cl)cc21)c1ccccn1` [GSK983], in the experiment on DENV-2 virus [2], the “inhibition of replication of DENV-2 virus, single agent” value was “neither GSK nor CPU alone inhibited replication”. The “antiviral activity as single agent” value in the experiment with DENV-2 virus [3] is recorded as “neither GSK983 nor CPU were effective”. In addition, in experiment [4], the EC50 is 0.005 to 0.02 µM.
